Experimental data taken from patent publication US20110160158A1, “METHODS OF TREATMENT OF BIPOLAR DISORDER” (REPLIGEN CORPORATION, priority 2008, published 2011).

Assays:
[1] = tested on: patients with Bipolar I Disorder, Most Recent Episode Depressed; assay: Same six-week study: Hamilton Anxiety Scale (HAM-A); format: in vivo, human
Experimental: (§1) The YMRS is an 11 item scale designed to measure core manic symptoms (Young et al., Br. J. Psychiatry, 133:429-435). A cumulative score of 15 or greater on the YMRS was considered evidence of a treatment emergent affective switch. The HAM-A scale is a measure of global anxiety, including cognitive and somatic symptoms.
A six-week, double blind, placebo-controlled, dose-escalation study was performed to assess the safety and efficacy of uridine in bipolar I depression. Eight-four (84) patients of both sexes were enrolled at twelve sites, randomized on a 1:1 basis to receive either placebo or uridine. To decrease the probability of a false negative result, uridine or placebo were given as monotherapy, and no concurrent bipolar medications, including mood stabilizers, atypical antipsychotics, antidepressants, anticonvulsants or other psychotropic medications were allowed during the study. Patients taking such medications were tapered gradually during the 28 days prior to initiation of the trial. Patients were evaluated each week over the 6-week trial period, with an extensive intervention plan for any patient having exacerbation of bipolar or depressive symptoms. […]
The effect on anxiety in uridine-treated bipolar I depression subjects in comparison to placebo was evaluated using the mean HAM-A scores for each group.

[2] = tested on: patients with Bipolar I Disorder, Most Recent Episode Depressed; format: in vivo, human
Experimental: as §1
A six-week, double blind, placebo-controlled, dose-escalation study was performed to assess the safety and efficacy of uridine in bipolar I depression. Eight-four (84) patients of both sexes were enrolled at twelve sites, randomized on a 1:1 basis to receive either placebo or uridine. To decrease the probability of a false negative result, uridine or placebo were given as monotherapy, and no concurrent bipolar medications, including mood stabilizers, atypical antipsychotics, antidepressants, anticonvulsants or other psychotropic medications were allowed during the study. Patients taking such medications were tapered gradually during the 28 days prior to initiation of the trial. Patients were evaluated each week over the 6-week trial period, with an extensive intervention plan for any patient having exacerbation of bipolar or depressive symptoms. After the trial period, patients were eligible to initiate therapy for bipolar disease and a follow-up visit occurred at week ten.
Informed consent was provided by all patients. […]

O=c1ccn([C@@H]2O[C@H](CO)[C@@H](O)[C@H]2O)c(=O)[nH]1 [uridine]
Mean HAM-A score vs placebo, MERM over the treatment period [1]: no difference between groups | Exacerbation of mean YMRS on treatment ([2]; in vivo): did not exacerbate the mean YMRS | Change in YMRS from baseline in comparison to placebo, MERM ([2]; while on treatment, p=0.025): significant decrease
